Test results reported in patent publication US12447136B2, “Use of (5R,7R,10R)-12,15-dioxo-α-selinene in the preparation of drugs” (KUNMING INSTITUTE OF BOTANY, CHINESE ACADEMY OF SCIENCES, priority 2020, dated 2025).

Tested on: MPP^+-induced PC12 cell injury
Assay: Protective effect on MPP+-induced PC12 cell injury (MTS cell viability)
Procedure: 1. PC12 poorly-differentiated cells were cultured in a medium containing Dulbecco's modified Eagle's medium (DMEM) high glucose+10% fetal bovine serum (FBS)+100 U/mL penicillin-streptomycin, in an incubator at 37° C. and 5% CO2.
2. When growing to 80% to 90%, the PC12 poorly-differentiated cells were subjected to trypsin digestion to obtain a cell suspension.
3. The cell suspension was aspirated into a 15 mL centrifuge tube, followed by centrifugation at 800 rpm for 5 min.
4. After the centrifugation, the centrifuge tube was sterilized with alcohol and placed into an ultra-clean bench, and a supernatant was poured into a waste liquid tank.
5. 5 mL of a new complete medium was added, followed by blowing the medium ten times by a pipette to disperse the cells as much as possible, wherein the blowing should not be performed by too large of a force.
6. 0.02 mL of the cell suspension was taken and added to a cell counting plate for counting.
7. The cell suspension was adjusted to have a cell concentration of 1×10^5 cells/mL, then added to a 96-well plate by 0.1 mL per well, and incubated in a cell incubator.
8. After 23 h, the original medium was aspirated, and a new medium (the formula of which was the same as that in the above step 1) was added; the compound to be tested was added; and 1 h later, MPP^+ was added (a final concentration of the MPP^+ in the system was 750 μM).
9. Experimental design: each group was designed and performed for 3 repetitions:
A blank group included only medium.
A model group (MPP^+) included medium and MPP^+ which was added with a final concentration of 750 μM.
A positive control group (vitamin E) included medium, vitamin E which was added with a final concentration of 0.2 μM, and MPP^+ which was subsequently added with a final concentration of 750 μM.
10. 24 h after adding the MPP^+, MTS was added; after 2 h, values were read for detection.

Row | Molecule | protective activity against MPP^+-induced PC12 cell injury (at concentrations of 1 μM and 2 μM (P<0.001)) | protective effect on MPP^+-induced PC12 cell injury (screening in the MPP^+-induced PC12 cell injury model, no concentration stated) | Cell viability (%) (0.2 μM compound or VE + 750 μM MPP^+, PC12 cells, MTS 24 h after MPP^+)
1 | C=C(C=O)[C@@H]1CC[C@@]2(C)CCC=C(C=O)[C@@H]2C1 [PFC-37, (5R,7R,10R)-12,15-dioxo-α-selinene] | significant protective activity | significant protective effect | 
2 | vitamin E [reference compound] |  |  | 75.70 ± 0.64
